Measured values taken from US20150342908A1, “SECOAPORPHINE ALKALOID DERIVATIVE FOR ACTIVATING AMP-DEPENDENT PROTEIN KINASE” (ZIH YUAN TANG Biotechnology Co., Ltd, priority 2014, published 2015).

System: AMPK
Experiment: AMPK phosphorylation (Thr172) western blot in C2C12 myocytes
Format: cell-based, mouse
Description: C2C12 skeletal myoblast cell line was purchased from the Food Industry Research and Development Institute (Hsinchu, Taiwan). The C2C12 cell line was a cell line obtained from culturing the leg skeletal muscle of adult C3H mice in a cell incubator under […], 5% CO2, and 37° C. The cells were cultured in a DMEM medium (Gibco/Invitrogen, Carlsbad, Calif.) containing 4.5 mg/mL glucose, 10% fetal bovine serum (FBS; Gibco/Invitrogen, Carlsbad, Calif.), and an antibiotic solution (with final concentrations of penicillin=100 IU/mL and streptomycin=100 μg/mL). When the C2C12 myoblast cells have proliferated to cover seven-tenths of the area in the petri dish, the fetal bovine serum was replaced by 2% horse serum (Gibco/Invitrogen, Carlsbad, Calif.) so as to induce the C2C12 myoblast cells to become the multi-nuclei myocytes. The C2C12 myoblast cells differentiated into myocytes in 4 days, and the culture medium of the cells was replaced with no-serum DMEM 24 hours before the experiments so as to reduce metabolism of the cells. The C2C12 myocytes were treated respectively with 1 μM, 3 μM and 10 μM N-allylsecoboldine for 5 and 15 minutes. Then the C2C12 myocytes were rinsed with PBS buffer solution, and RIPA buffer solution containing protease inhibitors (20 mM Tris-HCl (pH 7.4), 100 mM NaCl, 1 mM EDTA, 1 mM EGTA, 0.1% SDS, 0.5% sodium deoxycholate, 1% NP-40, and 100× protease inhibitor cocktail) was added into the cells. The cells were collected and centrifuged on ice. Then, the concentrations of the supernatant samples were adjusted to be the same. The supernatant samples were put through vertical electrophoresis isolation with 8% SDS-PAGE, and the isolated proteins were transferred onto a PVDF blotting membrane. After blotting was completed, the PVDF blotting membrane was removed and blocked for 1 hour under room temperature with a blocking buffer of TBST (Tris-buffered saline with Tween-20) with 5% non-fat milk. Then, the PVDF blotting membrane was placed into a 5% BSA and TBST solution containing the primary monoclonal antibodies Phospho-AMPKα (Thr172) (Cell Signaling) (1:1000) and AMPKα (Thr172) (Cell Signaling) (1:1000), respectively, and the primary immunoblotting reaction was performed under 4° C. Then, the PVDF blotting membrane was rinsed 3 times with TBST, and a TBST solution containing the secondary antibody goat anti-rabbit IgG (Perkin Elmer) (1:10000) was added to perform the secondary reaction for one hour under room temperature. Finally, the membrane was rinsed 3 times with TBST before ECL (enhanced chemiluminescence) was added to present color.

SMILES: C=CCN(C)CCc1cc(O)c(OC)c2c1ccc1cc(O)c(OC)cc12 [N-allylsecoboldine]
- AMPK phosphorylation, times of that in the control cells (3 μM, 5 minutes): 2.34 times
- AMPK phosphorylation, times of that in the control cells (3 μM, 15 minutes): 1.38 times
- AMPK phosphorylation, times of that in the control cells (10 μM, 5 minutes): 2.51 times
- AMPK phosphorylation, times of that in the control cells (10 μM, 15 minutes): 2.79 times
- effect in AMPK activation (in words) (C2C12 cells, overall conclusion): excellent effect in AMPK activation
